According to PMC6193987, “Metagenomics reveals functional synergy and novel polysaccharide utilization loci in the Castor canadensis fecal microbiome” (The ISME Journal, 2018):

What was measured:
[1] = test system: 12_J03-18; assay: fluorogenic glycosidase kinetics; assay type: biochemical, uncultured bacterium (Castor canadensis fecal metagenome)
From the text: fluorogenic glycosidase kinetics on 12_J03-18

[2] = test system: 12_H03-13; assay: fluorogenic glycosidase kinetics; assay type: biochemical, uncultured bacterium (Castor canadensis fecal metagenome); settings: GH43 domain site
From the text: fluorogenic glycosidase kinetics on 12_H03-13

For `Cc1cc(=O)oc2cc(O[C@@H]3OC[C@@H](O)[C@H](O)[C@H]3O)c(Cl)cc12` [6-chloro-4-methylumbelliferyl β-D-xyloside], the Km [1] was 480 ± 60 µM, the Km [2] was 190 ± 30 µM and the Km ([2]; GH8 catalytic acid residue mutated) was 140 ± 10 µM.
